Test results: patent US6894060B2, “Method for the treatment of dermal lesions caused by envenomation” (3M Innovative Properties Company, priority 2000, dated 2005)

Test system: Loxosceles reclusa envenomation (spider bite dermal lesions)
Assay: Treatment of Loxosceles reclusa envenomation with imiquimod 5% cream (consecutive clinical cases)
Type: in vivo, human
Description: A consecutive series of 7 bites on 5 patients were treated with imiquimod 5% cream (available under the tradename ALDARA from 3M Pharmaceuticals, St. Paul, Minn., USA) applied by the clinic staff, three times per week (typically Monday, Wednesday and Friday) for two weeks. Sufficient cream was used to cover the area of erythema, rubbing the cream gently until it “vanished” as per labeled instructions. In addition, a single intramuscular dose of ceftriaxone 1 gm was given together with oral dicloxicillin, 500 mg bid for 10 days. Patients were re-examined by a physician at 7, 14 and 28 days following initiation of therapy.

CC(C)Cn1cnc2c(N)nc3ccccc3c21 [imiquimod, 1-(2-methylpropyl)-1H-imidazo[4,5-c]quinolin-4-amine]
improvement in induration and erythema by day 7 (7 bites in 5 patients): Marked improvement
resolution of induration and erythema by day 14 (7 bites in 5 patients): full resolution in all but one case
cases with necrosis (7 consecutive cases, versus historical rate 7/12 (0.583): binomial p=0.002, Chi-square p=0.01): 0 out of 7
residual scarring or pigmentation changes (day 28 follow-up visit): No residual scarring or pigmentation changes
development of necrosis (imiquimod treated cases, 7 bites in 5 patients): Necrosis did not develop in any
erythema, 14 Day Follow-up (patient five, right calf bite): present
ulcer status, 14 Day Follow-up (patient five, right calf bite): Ulcer healed
erythema, 7 Day Follow-up (patient five, right calf bite, 1.2 cm erythema at presentation): No erythema
ulcer, 7 Day Follow-up (patient five, right calf bite, 1.8 cm central core at presentation): 0.75 cm ulcer
erythema resolved by (day) (patient five, right calf bite, erythema present at day 14): d28)
pain, 7 Day Follow-up (patient five, right calf bite, painful at presentation): Decreased pain
reappearance of erythema, presumed to be secondary to imiquimod (patient five, erythema cleared at the day 7 visit): developed again by day 14
lesion status, 14 Day Follow-up (patient four, right calf bite): Completely
induration, 7 Day Follow-up (patient four, right calf bite, 1.5 cm induration at presentation, cream three times per week for two weeks): 0.5 cm
erythema, 7 Day Follow-up (patient four, right calf bite, 9 cm erythema at presentation): No erythema
pain or tenderness, 7 Day Follow-up (patient four, right calf bite, painful at presentation): No pain or
lesion status, 14 Day Follow-up (patient one, right calf bite): Completely
firm induration, 7 Day Follow-up (patient one, right calf bite, 1.3 cm induration at presentation): 1.25 cm firm
induration (second entry of the cell), 7 Day Follow-up (patient one, right calf bite, 10 cm erythema at presentation): 5 cm
tenderness, 7 Day Follow-up (patient one, right calf bite, very painful at presentation): Non-tender
time from bite to resolution (patient three, first bite): 9 days
lesion status, 7 Day Follow-up (patient three, left buttock bite, 1.0 cm induration, erythema, painful at presentation): Completely
lesion status, 14 Day Follow-up (patient three, right thigh bite): Completely
central core, 7 Day Follow-up (patient three, right thigh bite, 1.5 cm induration at presentation): 2.5 cm
erythema, 7 Day Follow-up (patient three, right thigh bite, 7.5 × 11 cm erythema at presentation): No erythema
pain or tenderness, 7 Day Follow-up (patient three, right thigh bite, tender at presentation): No pain or
lesion status, 14 Day Follow-up (patient two, left thigh bite): Completely
central core, 7 Day Follow-up (patient two, left thigh bite, 1.0 cm central core at presentation): 0.5 cm
erythema, 7 Day Follow-up (patient two, left thigh bite, 6.0 cm erythema at presentation): 2.0 cm
lesion status, 14 Day Follow-up (patient two, right breast bite): Completely
central core, 7 Day Follow-up (patient two, right breast bite, 1.2 cm central core at presentation): 1.0 cm
erythema, 7 Day Follow-up (patient two, right breast bite, 3.0 cm erythema at presentation): No erythema
time to pain relief following the first dose (reported by all patients, 7 bites in 5 patients): 1 to 2 days
